The numbers were not newly measured in patent publication US20150283148A1, “ARRANGEMENT OF SPECIFIC ANTIDOTES WITH ALLOPATHIC MEDICINAL PREPARATIONS IN GENERAL SECONDARY PACKAGE” (priority 2014, published 2015), which cites them from elsewhere.

For this series the following is noted: predicted by algorithm.

For `NS(=O)(=O)Cc1noc2ccccc12` [Zonisamide], the “predicted latent side effect” value is on record as “suicidal thoughts”.
